According to patent US20190002452A1 (GUANGZHOU HENOVCOM BIOSCIENCE CO., LTD, priority 2016, published 2019):

biological target: T1, human farnesol receptor protein hFXR (Homo sapiens, UniProt Q96RI1); experiment: AlphaScreen assay of FXR agonist activity in vitro: effect on binding between human farnesol receptor protein and its coactivator (SRC1-2); format: biochemical; conditions: hFXR 100 nM, peptide bSRC1-2 50 nM, 2 hr incubation at room temperature
T1 construct: hexahistidine (His6)
T1 sequence (Q96RI1 1-486): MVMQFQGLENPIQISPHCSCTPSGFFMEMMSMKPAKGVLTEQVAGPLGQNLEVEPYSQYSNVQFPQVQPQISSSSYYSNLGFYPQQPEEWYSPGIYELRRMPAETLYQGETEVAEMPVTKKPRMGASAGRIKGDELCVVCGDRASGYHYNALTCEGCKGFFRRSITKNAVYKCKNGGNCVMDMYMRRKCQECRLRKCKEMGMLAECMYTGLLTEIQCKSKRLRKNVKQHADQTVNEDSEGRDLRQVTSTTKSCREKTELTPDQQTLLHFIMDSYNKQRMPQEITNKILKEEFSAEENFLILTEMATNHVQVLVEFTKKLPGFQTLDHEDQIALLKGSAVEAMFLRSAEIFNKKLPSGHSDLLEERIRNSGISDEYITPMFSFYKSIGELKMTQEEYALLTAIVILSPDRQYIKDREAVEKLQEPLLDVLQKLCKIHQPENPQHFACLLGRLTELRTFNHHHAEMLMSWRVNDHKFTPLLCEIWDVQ
Protocol: FXR agonist activity in vitro for the chemicals prepared in the above examples is measured.
AlphaScreen-based assays are performed with a hexahistidine detection kit manufactured by Perkins-Elmer, for measuring the effect of chemical compounds on the binding between human farnesol receptor protein and its coactivator (SRC1-2), the method is shown as follows:
1) Preparing a mixture comprising human farnesol receptor protein hFXR (100 nM, 15 μL/well), peptide bSRC1-2 (50 nM, 15 μL/well), 10× AlphaScreen buffer solution (15 μL/well and DI water (60 μL/well), and then transferring 105 μL/well of the mixture to a 96-well plate; 2) Diluting the chemicals prepared in the above examples by twice gradient 12×, with 15 μL/well; 3) Adding donor beads and acceptor beads, 30 μL/well in total; (attention: the beads are light-sensitive) 4) Incubating in dark at room temperature for 2 hr; 5) Transferring 40 μL/well of the mixture to a 384-well plate with 3 replicates, and then centrifuging at 1000 rpm for 1 min, to make liquid mixed well underneath the wells. (attention: photopathic operation); 6) In a dark room, reading the plate (by Homogeneous luminescent immunoassay system) to obtain EC50 with a GraphPad Prism5 software.

| Compound | EC50 [nM] |
| --- | --- |
| O=C(O)c1cc2cc(N3CCC4(CC(OCc5c(-c6c(Cl)cccc6Cl)noc5C5CC5)C4)C3)ccc2o1 (stereo not shown) [Example 29] | < 100 |
| C[C@@H]1CC2(CC(OCc3c(-c4c(Cl)cccc4Cl)noc3C3CC3)C2)CN1c1nc2ccc(C(=O)O)cc2s1 (stereo partly drawn) [Example 15, (R)-2-(2-((5-cyclopropyl-3-(2,6-dichlorophenyl)isoxazol-4-yl)methoxy)-7-methyl-6-azaspiro[3.4]octan-6-yl) benzo[d]thiazole-6-carboxylic Acid] | 100 to 1000 |
| O=C(O)c1cccc(C(=O)N2CC3(CC(OCc4c(-c5c(Cl)cccc5Cl)noc4C4CC4)C3)C2)c1 [Example 3, 3-(6((5-cyclopropyl-3(2,6-dichlorophenyl)isoxazol-4-yl)methoxy)-2-azaspiro[3.3]heptan-2-carbonyl)benzoic Acid] | > 1000 |
| O=C(O)c1cnc(N2CCC3(CC(OCc4c(-c5c(Cl)cccc5Cl)noc4C4CC4)C3)C2)cn1 (stereo not shown) [Example 35, 5-(2-((5-cyclopropyl-3-(2,6-dichlorophenyl)isoxazol-4-yl)methoxy)-6-azaspiro[3.4]octan-6-yl)pyrazine-2-carboxylic Acid] | < 100 |
| C[C@@H]1CC2(CC(OCc3c(-c4c(Cl)cccc4Cl)noc3C3CC3)C2)CN1c1nc2c(F)cc(C(=O)O)cc2s1 (stereo partly shown) [Example 17] | 100 to 1000 |
| CS(=O)(=O)NC(=O)c1ccc2nc(N3CCC4(CC(OCc5c(-c6c(Cl)cccc6Cl)noc5C5CC5)C4)C3)sc2c1 (stereo not shown) [Example 47, 2-(2-((5-cyclopropyl-3-(2,6-dichlorophenyl)isoxazol-4-yl)methoxy)-6-azaspiro[3.4]octan-6-yl)-N-(methylsulfonyl)benzo[d]thiazole-6-carboxamide] | 100 to 1000 |
| O=C(O)c1ccc2nc(N3CC4CCCC(C3)C4OCc3c(-c4c(Cl)cccc4Cl)noc3C3CC3)sc2c1 (stereo not shown) [Example 28, 2-(9-((5-cyclopropyl-3-(2,6-dichlorophenyl)isoxazol-4-yl)methoxy)-3-azazbicyclo[3.3.1]nonan-3-yl) benzo[d]thiazole-6-carboxylic Acid] | < 100 |
| O=C(O)c1cc2ccc(N3CCC4(CC(OCc5c(-c6c(Cl)cccc6Cl)noc5C5CC5)C4)C3)cc2s1 (stereo not shown) [Example 30, 6-(2-((5-cyclopropyl-3-(2,6-dichlorophenyl)isoxazol-4-yl)methoxy)-6-azaspiro[3.4]octan-6-yl) benzothiophene-2-carboxylic Acid] | 100 to 1000 |
| O=C(O)c1ccc2nc(N3CCc4cc(OCc5c(-c6c(F)cccc6F)noc5C5CC5)ccc4C3)sc2c1 [Example 40, 2-(6-((5-cyclopropyl-3-(2,6-difluorophenyl)isoxazol-4-yl)methoxy)-3,4-dihydroisoquinolin-2(1H)-yl) benzo[d]thiazole-6-carboxylic Acid] | < 100 |
| O=C(O)c1ccc2nc(N3CCc4ccc(OCc5c(-c6c(Cl)cccc6Cl)noc5C5CC5)cc4C3)sc2c1 [Example 24, 2-(7-((5-cyclopropyl-3-(2,6-dichlorophenyl)isoxazol-4-yl)methoxy)-3,4-dihydroisoquinolin-2(1H)-yl) benzo[d]thiazole-6-carboxylic Acid] | 100 to 1000 |
| Cn1cc(C(=O)O)c2ccc(N3CCC4(CC(OCc5c(-c6c(Cl)cccc6Cl)noc5C5CC5)C4)C3)cc21 (stereo not shown) [Example 33, 6-(2-((5-cyclopropyl-3-(2,6-dichlorophenyl)isoxazol-4-yl)methoxy)-6-azaspiro[3.4]octan-6-yl)-1-methyl-1H-indole-3-carboxylic Acid] | 100 to 1000 |
| O=C(O)c1ccc2nc(N3CCC4(CC(OCc5c(-c6c(Cl)cccc6Cl)noc5C5CC5)C4)C3)ccc2c1 (stereo not shown) [Example 34, 2-(2-((5-cyclopropyl-3-(2,6-dichlorophenyl)isoxazol-4-yl)methoxy)-6-azaspiro[3.4]octan-6-yl)quinolin-6-carboxylic Acid] | 100 to 1000 |
| O=C(O)c1cccc(N2CCC3(CC(OCc4c(-c5c(Cl)cccc5Cl)noc4C4CC4)C3)C2)n1 (stereo not shown) [Example 36, 6-(2-((5-cyclopropyl-3-(2,6-dichlorophenyl)isoxazol-4-yl)methoxy)-6-azaspiro[3.4]octan-6-yl)pyridine-2-carboxylic Acid] | 100 to 1000 |
| O=C(O)c1ccc2nc(N3CCC4(CC(OCc5c(-c6ccccc6C(F)(F)F)noc5C5CC5)C4)C3)sc2c1 (stereo not shown) [Example 41, 2-(2-((5-cyclopropyl-3-(2-trifluoromethylphenyl)isoxazol-4-yl)methoxy)-6-azaspiro[3.4]octan-6-yl) benzo[d]thiazole-6-carboxylic Acid] | 100 to 1000 |
| O=C(O)c1ccc(N2CCC3(CC(OCc4c(-c5c(Cl)cccc5Cl)noc4C4CC4)C3)C2)nc1 (stereo not shown) [Example 44, 6-(2-((5-cyclopropyl-3-(2,6-dichlorophenyl)isoxazol-4-yl)methoxy)-6-azaspiro[3.4]octan-6-yl) pyridine-3-carboxylic Acid] | < 100 |
| O=C(O)c1cccc(N2CC3(CC(OCc4c(-c5c(Cl)cccc5Cl)noc4C4CC4)C3)C2)c1 [Example 9, 3-(6-((5-cyclopropyl-3-(2,6-dichlorophenyl)isoxazol-4-yl)methoxy)-2-azaspiro[3.3]heptan-2-yl)benzoic Acid] | 100 to 1000 |
| O=C(O)c1cccc(C(=O)N2CC3CCC(C2)C3OCc2c(-c3c(Cl)cccc3Cl)noc2C2CC2)c1 (stereo not shown) [Example 5, 3-(8((5-cyclopropyl-3-(2,6-dichlorophenyl)isoxazol-4-yl)methoxy)3-azabicyclo[3.2.1]octan-3-carbonyl)benzoic Acid] | > 1000 |
| O=C(O)c1ccc2nc(N3CCc4cc(OCc5c(-c6c(Cl)cccc6Cl)noc5C5CC5)ccc4C3)sc2c1 [Example 23, 2-(6-((5-cyclopropyl-3-(2,6-dichlorophenyl)isoxazol-4-yl)methoxy)-3,4-dihydroisoquinolin-2 (1H)-yl) benzo[d]thiazole-6-carboxylic Acid] | < 100 |
| O=C(O)c1ccc2nc(N3CCC4(CC(OCc5c(-c6c(F)cccc6F)noc5C5CC5)C4)C3)sc2c1 (stereo not shown) [Example 38] | 100 to 1000 |
| O=C(O)c1cc(F)c2nc(N3CCC4(CC(OCc5c(-c6c(Cl)cccc6Cl)noc5C5CC5)C4)C3)sc2c1 (stereo not shown) [Example 13, 2-(2-((5-cyclopropyl-3-(2,6-dichlorophenyl)isoxazol-4-yl)methoxy)-6-azaspiro[3.4]octan-6-yl)-4-flurobenzo[d]thiazole-6-carboxylic Acid] | 100 to 1000 |
| O=C(O)c1cccc(C(=O)N2CCC3(CC(OCc4c(-c5c(Cl)cccc5Cl)noc4C4CC4)C3)C2)c1 (stereo not shown) [Example 7, 3-(2-((5-cyclopropyl-3-(2,6-dichlorophenyl)isoxazol-4-yl)methoxy)-6-azaspiro[3.4]octan-6-carbonyl)benzoic Acid] | < 100 |
| O=C(O)c1cc(F)c2nc(N3CC4(CC(OCc5c(-c6c(Cl)cccc6Cl)noc5C5CC5)C4)C[C@H]3CF)sc2c1 (stereo partly drawn) [Example 19, (S)-2-(2-((5-cyclopropyl-3-(2,6-dichlorophenyl)isoxazol-4-yl)methoxy)-7-(fluromethyl)-6-azaspiro[3.4]octan-6-yl)-4-flurobenzo[d]thiazole-6-carboxylic Acid] | 100 to 1000 |
| O=C(O)c1ccc(N2CCC3(CC(OCc4c(-c5c(Cl)cccc5Cl)noc4C4CC4)C3)C2)c(F)c1 (stereo not shown) [Example 37, 4-(2-((5-cyclopropyl-3-(2,6-dichlorophenyl)isoxazol-4-yl)methoxy)-6-azaspiro[3.4]octan-6-yl)-3-fluorobenzoic Acid] | 100 to 1000 |
| COc1cc(C(=O)O)cc2sc(N3CC4(CC(OCc5c(-c6c(Cl)cccc6Cl)noc5C5CC5)C4)C[C@H]3C)nc12 (stereo partly shown) [Example 18] | 100 to 1000 |
| 2-(5-((5-cyclopropyl-3-(2,6-dichlorophenyl)isoxazol-4-yl)methoxy)hexahydrocyclopenta[c]pyrrol-2(1H)-yl) benzo[d]thiazole-6-carboxylic Acid [Example 27] | > 1000 |
| O=C(O)c1ccc2nc(N3Cc4ccc(OCc5c(-c6c(Cl)cccc6Cl)noc5C5CC5)cc4C3)sc2c1 [Example 22, 2-(5-((5-cyclopropyl-3-(2,6-dichlorophenyl)isoxazol-4-yl)methoxy)isoindolin-2-yl) benzo[d]thiazole-6-carboxylic Acid] | < 100 |
| O=C(O)c1nsc2cc(N3CCC4(CC(OCc5c(-c6c(Cl)cccc6Cl)noc5C5CC5)C4)C3)ccc12 (stereo not shown) [Example 31, 6-(2-((5-cyclopropyl-3-(2,6-dichlorophenyl)isoxazol-4-yl)methoxy)-6-azaspiro[3.4]octan-6-yl) benzo[d]isothiazole-3-carboxylic Acid] | < 100 |
| O=C(O)c1ccc2nc(N3CC4(CC(OCc5c(-c6c(Cl)cccc6Cl)noc5C5CC5)C4)C3)sc2c1 [Example 4, 2-(6((5-cyclopropyl-3-(2,6-dichlorophenyl)isoxazol-4-yl)methoxy)2-azaspiro[3.3]heptan-2-yl)benzo[d]thiazole-6-carboxylic Acid] | < 100 |
